Read-outs that look alike come from different tables or passages of the source.
Key:
[1] = molecular target: T1, C. muris cytosolic leucyl-tRNA synthetase (CmLeuRS) editing domain (Cryptosporidium muris, UniProt B6AA20); test: ITC; crystal structure ([…] Å); type: binding
T1 construct: gene CMU_041310; connective polypeptide domain (CP1) residues 254 to 541

[2] = molecular target: T1, C. muris cytosolic leucyl-tRNA synthetase (CmLeuRS) editing domain; test: ITC; crystal structure ([…] Å); type: binding; remark: listed apart in the source

T1 sequence (B6AA20 entry or part of it): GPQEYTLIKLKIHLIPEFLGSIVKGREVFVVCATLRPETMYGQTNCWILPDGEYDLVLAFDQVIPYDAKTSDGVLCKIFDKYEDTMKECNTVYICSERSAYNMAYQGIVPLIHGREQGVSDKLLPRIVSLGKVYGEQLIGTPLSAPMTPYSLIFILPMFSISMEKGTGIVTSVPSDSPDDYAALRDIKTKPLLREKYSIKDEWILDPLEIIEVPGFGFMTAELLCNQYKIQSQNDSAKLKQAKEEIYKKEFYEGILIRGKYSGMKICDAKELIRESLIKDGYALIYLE

Row | SMILES | Kd [1] [µM] | Kd [2] [µM]
1 | CC[C@H](C)[C@H](N)C(=O)N[C@@H]1[C@H](O)[C@@H](CO)O[C@H]1n1cnc2c(N)ncnc21 [Ile2AA, 2-(L-isoleucyl)amino-2-deoxyadenosine] | 215 | 
2 | CCC[C@H](N)C(=O)N[C@@H]1[C@H](O)[C@@H](CO)O[C@H]1n1cnc2c(N)ncnc21 [Nva2AA, 2-(L-norvalyl)amino-2-deoxyadenosine] |  | 213
